From the supplement of paper PMC10307832

Tests used:
Test in all cases: relative viability (nuclei count vs DMSO), 5 days (fraction); higher = more cells survive
[1] = compound: C=CCn1c(=O)c2cnc(Nc3ccc(N4CCN(C)CC4)cc3)nc2n1-c1cccc(C(C)(C)O)n1 [Adavosertib] + Cc1cc(Nc2cc(N3CCN(C)CC3)nc(Sc3ccc(NC(=O)C4CC4)cc3)n2)n[nH]1 [Tozasertib] (partner 0.1 µM)
In short: (§1)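 Medians of duplicate plates are given as relative viability. That measure is the nuclei count in treated wells divided by the count in vehicle wells. Counts were taken on 4× images of lung cancer cell lines in 1536-well plates, 5 days after pin-tool dosing the day after seeding with one drug alone or a fixed anchor-drug dose plus five library-drug doses (not always all listed) in √10 steps.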

[2] = compound: C=CCn1c(=O)c2cnc(Nc3ccc(N4CCN(C)CC4)cc3)nc2n1-c1cccc(C(C)(C)O)n1 [Adavosertib] + NC(=O)Nc1cc(-c2cccc(F)c2)sc1C(=O)N[C@H]1CCCNC1 [AZD7762] (partner 0.2 µM)
In short: as §1

[3] = compound: C=CCn1c(=O)c2cnc(Nc3ccc(N4CCN(C)CC4)cc3)nc2n1-c1cccc(C(C)(C)O)n1 [Adavosertib] + Nc1nc2[nH]cc(CCc3ccc(C(=O)N[C@@H](CCC(=O)O)C(=O)O)cc3)c2c(=O)[nH]1 [Pemetrexed] (partner 0.2 µM)
In short: as §1

[4] = compound: COc1nc(N)nc2c1ncn2[C@@H]1O[C@H](CO)[C@@H](O)[C@@H]1O [Nelarabine] + N=C(N)NC(=N)NCCc1ccccc1 [Phenformin] (partner 250 µM)
In short: as §1

Cell Line	relative viability ([1]; first compound 0.01 µM)	relative viability ([1]; first compound 0.03162 µM)	relative viability ([1]; first compound 0.1 µM)	relative viability ([1]; first compound 0.3162 µM)	relative viability ([2]; first compound 0.01 µM)	relative viability ([2]; first compound 0.03162 µM)	relative viability ([2]; first compound 0.1 µM)	relative viability ([2]; first compound 0.3162 µM)	relative viability ([3]; first compound 0.01 µM)	relative viability ([3]; first compound 0.03162 µM)	relative viability ([3]; first compound 0.1 µM)	relative viability ([3]; first compound 0.3162 µM)	relative viability ([4]; first compound 0.01 µM)	relative viability ([4]; first compound 0.03162 µM)	relative viability ([4]; first compound 0.1 µM)	relative viability ([4]; first compound 0.3162 µM)	relative viability ([4]; first compound 1 µM)
NCI-H522	0.522	0.58	0.508	0.581	0.654	0.733	0.782	0.882	1.02	1.03	1.04	0.949	0.727	0.661	0.594	0.716	0.728
NCI-H2087	0.303	0.258	0.273	0.234	1.37	1.21	1.3	1.03	0.644	0.634	0.67	0.644	0.577	0.408	0.397	0.457	0.569
EPLC-272H	0.281	0.315	0.197	0.277	0.161	0.151	0.127	0.135	0.33	0.258	0.175	0.116	0.236	0.291	0.272	0.265	0.291
NCI-H838	0.237	0.268	0.328	0.283	0.986	0.831	0.722	0.626	0.263	0.22	0.172	0.168	0.701	0.549	0.608	0.595	0.628
NCI-H2170	0.675	0.683	0.688	0.735	0.919	0.838	0.725	0.266	0.282	0.248	0.271	0.218	0.393	0.39	0.388	0.421	0.383
NCI-H1651	0.7	0.702	0.832	0.668	0.415	0.299	0.264	0.132	0.564	0.574	0.628	0.408	0.362	0.329	0.46	0.353	0.355
LU99A	0.284	0.273	0.263	0.273	0.295	0.196	0.184	0.122	0.156	0.165	0.144	0.115	0.88	0.767	0.837	0.864	0.854
LK-2	0.172	0.2	0.171	0.19	0.29	0.374	0.236	0.168	0.266	0.238	0.357	0.215	0.433		0.236	0.387	0.472
NCI-H1666	0.642	0.568	0.678	0.694	0.766	0.829	0.803	0.625	0.808	0.925	0.82	0.695	0.576	0.607	0.569	0.536	0.606
H3255	0.63	0.721	0.421	0.559	0.824	0.854	0.721	0.559	0.553	0.59	0.563	0.536		0.361	0.341	0.321	0.337
LCLC-97TM1	0.22	0.245	0.195	0.383	0.289	0.264	0.138	0.0845	0.214	0.171	0.17	0.159	0.506	0.446	0.339	0.426	0.42
NCI-H1975	0.842	0.794	0.835	0.525	0.713	0.677	0.663	0.641	0.263	0.268	0.209	0.213	0.472	0.389	0.4	0.399	0.432
NCI-H2405	0.807	0.83	0.835	0.877		0.663	0.331	0.276		1.1	0.899	1.05	0.385	0.395	0.357	0.383	0.26
NCI-H1734	0.257	0.24	0.252	0.266	0.379	0.315	0.202	0.168	0.409	0.39	0.325	0.323	0.446	0.388	0.412	0.366	0.38
NCI-H1993	0.633	0.598	0.658	0.666	0.905	0.828	0.697	0.807	0.57	0.517	0.608	0.629	0.527	0.486	0.448	0.499	0.503
NCI-H358	0.104	0.0953	0.102	0.0852	0.486	0.488	0.329	0.234	0.227	0.189	0.166	0.157	0.441	0.308	0.305	0.356	0.377
PC-14	0.6	0.566	0.843	0.69	0.261	0.289	0.224	0.0765	0.151	0.121	0.115	0.0767	0.645	0.46	0.67	0.556	0.447
NCI-H23	0.326	0.321	0.283	0.192	0.227	0.143	0.118	0.142	0.664	0.539	0.487	0.262	0.778	0.766	0.684	0.847	0.79
NCI-H322M	0.481	0.453	0.436	0.342	0.472	0.427	0.387	0.337	0.593	0.625	0.52	0.469	0.819	0.716	0.762	0.776	0.745

Cell Line	relative viability ([1]; first compound 0.01 µM)	relative viability ([1]; first compound 0.03162 µM)	relative viability ([1]; first compound 0.1 µM)	relative viability ([1]; first compound 0.3162 µM)	relative viability ([2]; first compound 0.01 µM)	relative viability ([2]; first compound 0.03162 µM)	relative viability ([2]; first compound 0.1 µM)	relative viability ([2]; first compound 0.3162 µM)	relative viability ([3]; first compound 0.01 µM)	relative viability ([3]; first compound 0.03162 µM)	relative viability ([3]; first compound 0.1 µM)	relative viability ([3]; first compound 0.3162 µM)	relative viability ([4]; first compound 0.01 µM)	relative viability ([4]; first compound 0.03162 µM)	relative viability ([4]; first compound 0.1 µM)	relative viability ([4]; first compound 0.3162 µM)	relative viability ([4]; first compound 1 µM)
LC-2-ad	0.478	0.419	0.445	0.442	0.792	0.846	0.817	0.62	0.288	0.276	0.302	0.277	0.618	0.613	0.637	0.54	0.536
LOU-NH91	0.694	0.69	0.735	0.62	0.776	0.723	0.645	0.531	0.371	0.371	0.338	0.36	0.49	0.782	0.741	0.768	0.751
CAL-12T	0.394	0.351	0.321	0.18	0.569	0.41	0.427	0.232	1.15	1.25	1.02	0.682	0.664	0.575	0.533	0.582	0.621
NCI-H1793	0.352	0.386	0.4	0.253	0.407	0.2	0.14	0.179	0.808	0.913	0.756	0.782	0.45	0.366	0.315	0.472	0.406
NCI-H3122	0.414	0.383	0.462	0.469	0.998	0.829	0.963	0.511	0.211	0.199	0.188	0.173	0.381	0.356		0.412	0.358
NCI-H1437	0.415	0.389	0.433	0.421	1.11	1.11	1.15	0.581	0.328	0.281	0.309	0.229	0.304	0.309	0.318	0.302	0.325
NCI-H650	0.75	0.774	0.806	0.757	0.736	0.809	0.411	0.221	0.892	1.07	0.952	0.774	0.505	0.425	0.46	0.457	0.461
HCC-78	0.589	0.348	0.351	0.464	0.512	0.603	0.564	0.368	0.921	0.922	0.959	0.887	0.709	0.684		0.709	0.701
A-427	0.175	0.186	0.219	0.164	0.692	0.4	0.327	0.231	0.97	0.905	0.892	0.893	0.315	0.22	0.306	0.289	0.236
HCC-15	0.385	0.409	0.481	0.444	1.1	1.28	1.57	1.14	0.221	0.227	0.216	0.229	0.582	0.443	0.426	0.51	0.498
EKVX	0.424	0.451	0.436	0.469	0.595	0.731	0.635	0.799	0.426	0.374	0.309	0.362	0.22	0.234	0.231	0.22	0.232
SW 900		0.533	0.62	0.538	0.559	0.422	0.281	0.175	0.457	0.484	0.492	0.443	0.592	0.583	0.546	0.784	0.635
BEN	0.598	0.474	0.494	0.629	0.571	0.622	0.632	0.451	0.739	0.76	0.816	0.815	0.264	0.269	0.276	0.221	0.273
201T	0.91	0.999	1.01	0.979	0.615	0.537	0.471	0.267	0.319	0.343	0.325	0.281	0.459	0.416	0.451	0.433	0.417
HCC-827	0.402	0.415	0.46	0.437	0.196	0.166	0.179	0.15	0.283	0.223	0.284	0.245	0.373	0.378	0.308	0.352	0.443
NCI-H2085	0.738	0.788	0.956	0.799	0.995	0.909	0.731	0.409	0.881	0.86	0.901	0.998	0.73	0.703	0.669	0.69	0.767
NCI-H596	1.03	0.826	1.02	0.93	1.04	1.05	0.844	0.751	0.497	0.515	0.471	0.423	0.778	0.749	0.747	0.812	0.86
NCI-H2342	0.548	0.507	0.55	0.525	0.524	0.508	0.48	0.43	0.754	0.826	0.764	0.844	0.554	0.522	0.503	0.67	0.566
PC-3 [JPC-3]	0.891	0.874	0.925	0.897		0.757	0.777	0.709		1.24	1.26	1.12	0.475	0.437	0.473	0.472	0.459
